In this test the target is T1, subtype M of human STING (Homo sapiens, UniProt Q86WV6).
T1 construct: expressed in transfected cells
Put plainly: type 1 interferon promoter luciferase reporter in HEK293T cell lines stably expressing subtype M of human STING. Format: cell-based. Details: dose or concentration left out as unconfirmed. To be noted: c-di-AMP final concentration in complete medium, 16 hour. The procedure: After two weeks, drug resistance strains occurred.
Incubate for 20 min at room temperature. […] After 24 hours, the supernatants were removed.
For orientation: In a reporter assay the amount or activity of a reporter protein is the signal.

T1 sequence (Q86WV6 120-379): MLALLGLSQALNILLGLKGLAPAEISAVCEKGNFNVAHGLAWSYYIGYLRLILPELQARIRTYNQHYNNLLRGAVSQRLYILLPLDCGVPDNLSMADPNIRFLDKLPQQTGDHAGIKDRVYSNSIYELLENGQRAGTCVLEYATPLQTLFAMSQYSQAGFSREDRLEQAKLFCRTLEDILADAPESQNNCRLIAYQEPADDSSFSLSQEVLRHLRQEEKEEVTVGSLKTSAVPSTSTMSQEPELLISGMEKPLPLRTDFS

Regarding `Nc1ncnc2c1ncn2[C@@H]1O[C@@H]2COP(=O)(O)O[C@H]3[C@@H](O)[C@H](n4cnc5c(N)ncnc54)O[C@@H]3COP(=O)(O)O[C@H]2[C@H]1O` [c-di-AMP], the “luciferase activity compared with control group in which only transfection was performed” value is reported as “significantly increased”.

Source of the values: US20240019418A1, “RECEPTORS FOR CYCLIC DINUCLEOTIDES AND METHODS FOR SCREENING AGONISTS OR INHIBITORS THEREOF” (GUANGZHOU WINKEY TECHNOLOGY CO., LTD., priority 2017, published 2024).
